# Data taken from PMC5572671 (Biomaterials, 2017).
# Read-outs that look alike come from different tables or passages of the source.
# Experiments:
# [1] = cited from earlier work
# Caco-2 monolayers [2] = test system: Caco-2 monolayers
# Caco-2 monolayers [3] = settings: standard Caco-2 assay on collagen type-I; cited from earlier work
# Caco-2 monolayers [4] = assay: Caco-2 monolayer drug transport assay; settings: Fig. 6; 2 h; LC-MS
Papp for cells on eECM with decreased CBD and decreased stiffness compared to cells grown on collagen (Caco-2 monolayers [2]),Papp for cells on eECM with decreased CBD and decreased stiffness compared to cells grown on collagen (Caco-2 monolayers [4]),SMILES,in vivo absorption [1] [%],absorption predicted by the Caco-2 assay (Caco-2 monolayers [3])
,,C[C@@H]1C[C@H]2[C@@H]3CCC4=CC(=O)C=C[C@]4(C)[C@@]3(F)[C@@H](O)C[C@]2(C)[C@@]1(O)C(=O)CO [dexamethasone],> 85,
significantly higher,,CNC(=C[N+](=O)[O-])NCCSCc1ccc(CN(C)C)o1 [ranitidine],51,little to no absorption
,significantly higher,CC(C)(C)NCC(O)COc1cccc2c1CC(O)C(O)C2 (stereo not shown) [nadolol],45,
,,NC(N)=Nc1nc(CSCCC(N)=NS(N)(=O)=O)cs1 [famotidine],35,
